# In article PMC9090415, “Discovery of small molecule inhibitors of Plasmodium falciparum apicoplast DNA polymerase” (Journal of Enzyme Inhibition and Medicinal Chemistry, 2022):
# Target: P. falciparum apicoplast DNA polymerase (Pf-apPOL) (Plasmodium falciparum, UniProt Q8ILY1)
# Test: Fluorescence-based high-throughput DNA polymerase assay (molecular beacon), primary screen and dose-response
# Format: biochemical
# Settings: for DNA Pol: 90 min, 10 µM; for IC50: supplemental file 2, sheet IC50 nontoxic compounds, Pf-apPOL
# Method in brief: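 Single-point screening used 10 µM compound with 20 nM polymerase, 20 nM hairpin substrate and 6 µM dNTPs for 90 min at 25 °C. Confirmatory titrations (2.5–80 µM) followed fluorescence at three times, and IC50 was derived from a fit including a cooperativity term n.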
# [1] = 'DNA Pol', screening value, unit not given
# [2] = conc 2.5 (unit not given), 40', DRC-2
# [3] = conc 5 (unit not given), 90', DRC-2
# [4] = primary screen hit value, DNA Pol (186 hits)
# Chain of P. falciparum apicoplast DNA polymerase (Pf-apPOL) (Q8ILY1 entry or part of it): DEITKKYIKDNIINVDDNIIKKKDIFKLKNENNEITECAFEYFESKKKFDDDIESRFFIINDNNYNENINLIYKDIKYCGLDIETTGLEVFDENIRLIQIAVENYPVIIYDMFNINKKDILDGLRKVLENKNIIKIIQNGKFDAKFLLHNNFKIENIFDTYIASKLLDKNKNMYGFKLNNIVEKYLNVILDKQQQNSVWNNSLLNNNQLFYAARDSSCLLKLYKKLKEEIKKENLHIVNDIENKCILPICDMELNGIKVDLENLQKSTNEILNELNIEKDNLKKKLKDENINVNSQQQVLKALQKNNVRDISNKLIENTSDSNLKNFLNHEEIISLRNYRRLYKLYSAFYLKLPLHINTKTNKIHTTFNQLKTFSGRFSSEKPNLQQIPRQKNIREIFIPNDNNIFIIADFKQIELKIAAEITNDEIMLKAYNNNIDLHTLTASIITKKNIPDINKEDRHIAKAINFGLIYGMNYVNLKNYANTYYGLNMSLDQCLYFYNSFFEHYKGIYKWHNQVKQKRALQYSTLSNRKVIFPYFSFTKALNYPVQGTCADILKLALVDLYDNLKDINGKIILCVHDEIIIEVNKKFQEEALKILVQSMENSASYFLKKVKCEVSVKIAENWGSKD
smiles,measurement,setting,value
"CN1CC(=Cc2ccco2)C(=O)C(=Cc2ccco2)C1 [Molecule 65, CN1CC(=Cc2ccco2)C(=O)C(=Cc2ccco2)C1]",DNA Pol,[1],69
same,% inhibition Apo pol 10',"DRC-1, concentration 2.5",22.1284%
same,% inhibition Apo pol 10',"DRC-1, concentration 5",42.6789%
same,% inhibition Apo pol 10',"DRC-1, concentration 10",54.6654%
same,% inhibition Apo pol 10',"DRC-1, concentration 20",60.4298%
same,% inhibition Apo pol 10',"DRC-1, concentration 40",67.6613%
same,% inhibition Apo pol 10',"DRC-1, concentration 80",69.4432%
same,% inhibition Apol 90',"DRC-1, 90', concentration 2.5",10.4669%
same,% inhibition Apol 90',"DRC-1, 90', concentration 5",22.0675%
same,% inhibition Apol 90',"DRC-1, 90', concentration 10",32.2145%
same,% inhibition Apol 90',"DRC-1, 90', concentration 20",39.744%
same,% inhibition Apol 90',"DRC-1, 90', concentration 40",50.5992%
same,% inhibition Apol 90',"DRC-1, 90', concentration 80",58.0625%
same,% inhibition apPOL 180',"DRC-1, 180', concentration 2.5",4.595%
same,% inhibition apPOL 180',"DRC-1, 180', concentration 5",8.893%
same,% inhibition apPOL 180',"DRC-1, 180', concentration 10",17.702%
same,% inhibition apPOL 180',"DRC-1, 180', concentration 20",24.3352%
same,% inhibition apPOL 180',"DRC-1, 180', concentration 40",38.0441%
same,% inhibition apPOL 180',"DRC-1, 180', concentration 80",50.1748%
same,% inhibition Apo pol 5',"DRC-2, 5', concentration 2.5",27%
same,% inhibition Apo pol 5',"DRC-2, 5', concentration 5",34%
same,% inhibition Apo pol 5',"DRC-2, 5', concentration 10",42%
same,% inhibition Apo pol 5',"DRC-2, 5', concentration 20",45%
same,% inhibition Apo pol 5',"DRC-2, 5', concentration 40",49%
same,% inhibition Apo pol 5',"DRC-2, 5', concentration 80",47%
same,% inhibition Apol 40',"DRC-2, 40', concentration 2.5",21%
same,% inhibition Apol 40',"DRC-2, 40', concentration 5",27%
same,% inhibition Apol 40',"DRC-2, 40', concentration 10",37%
same,% inhibition Apol 40',"DRC-2, 40', concentration 20",43%
same,% inhibition Apol 40',"DRC-2, 40', concentration 40",52%
same,% inhibition Apol 40',"DRC-2, 40', concentration 80",55%
same,% inhibition ApPOL 90',"DRC-2, 90', concentration 2.5",17%
same,% inhibition ApPOL 90',"DRC-2, 90', concentration 5",21%
same,% inhibition ApPOL 90',"DRC-2, 90', concentration 10",32%
same,% inhibition ApPOL 90',"DRC-2, 90', concentration 20",38%
same,% inhibition ApPOL 90',"DRC-2, 90', concentration 40",50%
same,% inhibition ApPOL 90',"DRC-2, 90', concentration 80",56%
same,% inhibition apPOL 180',"DRC-2, 180', concentration 2.5",8%
same,% inhibition apPOL 180',"DRC-2, 180', concentration 5",8%
same,% inhibition apPOL 180',"DRC-2, 180', concentration 10",20%
same,% inhibition apPOL 180',"DRC-2, 180', concentration 20",28%
same,% inhibition apPOL 180',"DRC-2, 180', concentration 40",42%
same,% inhibition apPOL 180',"DRC-2, 180', concentration 80",54%
same,% inhibition Apo pol 5',"conc 2.5 (unit not given), 5', DRC-2",27%
same,% inhibition Apol 40',[2],21%
same,% inhibition apPOL 180',"conc 2.5 (unit not given), 180', DRC-2",8%
same,% inhibition Apol 40',"conc 5 (unit not given), 40', DRC-2",27%
same,% inhibition ApPOL 90',[3],21%
same,% inhibition apPOL 180',"conc 5 (unit not given), 180', DRC-2",8%
same,% inhibition Apo pol 5',"conc 10 (unit not given), 5', DRC-2",42%
same,% inhibition apPOL 180',"conc 40 (unit not given), 180', DRC-2",42%
same,DNA Pol,[4],69
CN1CC(=Cc2ccco2)C(=O)C(=Cc2ccco2)C1 [Molecule 65],IC50,,7.51 µM
O=C1c2ccccc2C(=O)N1Oc1ccc([N+](=O)[O-])c([N+](=O)[O-])c1 [Molecule 66],IC50,,37 µM
CC(NC(=O)Cc1cc(=O)[nH]c(SCc2cccc(Cl)c2)n1)c1ccccc1 (stereo not shown) [Molecule 67],IC50,,23.3 µM
"O=C(NNC(=O)C(F)(F)Sc1ccccc1)c1ccsc1 [Molecule 68, O=C(C(Sc1ccccc1)(F)F)NNC(=O)c1cscc1]",DNA Pol,[1],82
same,% inhibition Apo pol 10',"DRC-1, concentration 2.5",18.9007%
same,% inhibition Apo pol 10',"DRC-1, concentration 5",22.6096%
same,% inhibition Apo pol 10',"DRC-1, concentration 10",35.002%
same,% inhibition Apo pol 10',"DRC-1, concentration 20",47.6682%
same,% inhibition Apo pol 10',"DRC-1, concentration 40",67.1681%
same,% inhibition Apo pol 10',"DRC-1, concentration 80",81.7014%
same,% inhibition Apol 90',"DRC-1, 90', concentration 2.5",-2.054%
same,% inhibition Apol 90',"DRC-1, 90', concentration 5",4.132%
same,% inhibition Apol 90',"DRC-1, 90', concentration 10",13.2706%
same,% inhibition Apol 90',"DRC-1, 90', concentration 20",25.6835%
same,% inhibition Apol 90',"DRC-1, 90', concentration 40",44.8257%
same,% inhibition Apol 90',"DRC-1, 90', concentration 80",64.9924%
same,% inhibition apPOL 180',"DRC-1, 180', concentration 2.5",-9.701%
same,% inhibition apPOL 180',"DRC-1, 180', concentration 5",-6.4745%
same,% inhibition apPOL 180',"DRC-1, 180', concentration 10",2.016%
same,% inhibition apPOL 180',"DRC-1, 180', concentration 20",13.4425%
same,% inhibition apPOL 180',"DRC-1, 180', concentration 40",32.4259%
same,% inhibition apPOL 180',"DRC-1, 180', concentration 80",53.4351%
same,% inhibition Apo pol 5',"DRC-2, 5', concentration 2.5",9%
same,% inhibition Apo pol 5',"DRC-2, 5', concentration 5",10%
same,% inhibition Apo pol 5',"DRC-2, 5', concentration 10",23%
same,% inhibition Apo pol 5',"DRC-2, 5', concentration 20",31%
same,% inhibition Apo pol 5',"DRC-2, 5', concentration 40",47%
same,% inhibition Apo pol 5',"DRC-2, 5', concentration 80",58%
same,% inhibition Apol 40',"DRC-2, 40', concentration 2.5",5%
same,% inhibition Apol 40',"DRC-2, 40', concentration 5",7%
same,% inhibition Apol 40',"DRC-2, 40', concentration 10",19%
same,% inhibition Apol 40',"DRC-2, 40', concentration 20",27%
same,% inhibition Apol 40',"DRC-2, 40', concentration 40",48%
same,% inhibition Apol 40',"DRC-2, 40', concentration 80",64%
same,% inhibition ApPOL 90',"DRC-2, 90', concentration 2.5",2.82%
same,% inhibition ApPOL 90',"DRC-2, 90', concentration 5",2.82%
same,% inhibition ApPOL 90',"DRC-2, 90', concentration 10",15%
same,% inhibition ApPOL 90',"DRC-2, 90', concentration 20",22%
same,% inhibition ApPOL 90',"DRC-2, 90', concentration 40",44%
same,% inhibition ApPOL 90',"DRC-2, 90', concentration 80",62%
same,% inhibition apPOL 180',"DRC-2, 180', concentration 2.5",-3.39%
same,% inhibition apPOL 180',"DRC-2, 180', concentration 5",-3.25%
same,% inhibition apPOL 180',"DRC-2, 180', concentration 10",5%
same,% inhibition apPOL 180',"DRC-2, 180', concentration 20",12%
same,% inhibition apPOL 180',"DRC-2, 180', concentration 40",32%
same,% inhibition apPOL 180',"DRC-2, 180', concentration 80",55%
same,% inhibition Apol 40',[2],5%
same,% inhibition ApPOL 90',"conc 2.5 (unit not given), 90', DRC-2",2.82%
same,% inhibition ApPOL 90',[3],2.82%
same,% inhibition apPOL 180',"conc 10 (unit not given), 180', DRC-2",5%
same,DNA Pol,[4],82
